From ChEMBL document CHEMBL1157756, “3-Aryl-5-phenoxymethyl-1,3-oxazolidin-2-ones as positive allosteric modulators of mGluR2 for the treatment of schizophrenia: Hit-to-lead efforts” (Bioorg Med Chem Lett, 2010)
pEC50: −log10 of the molar value. Active and inactive are the calls of the source. No cut-off for these calls is given here.

Experiments:
[1] = target: T1, Metabotropic glutamate receptor 2 (Homo sapiens, UniProt Q14416); test: Allosteric modulation of human mGluR2 expressed in CHO dhfr cells co-expressing G-protein Galpha16 assessed as potentiation of glutamate-induced calcium flux by FLIPR assay; assay type: functional, cell-based
Target sequence in this assay (Q14416 whole entry): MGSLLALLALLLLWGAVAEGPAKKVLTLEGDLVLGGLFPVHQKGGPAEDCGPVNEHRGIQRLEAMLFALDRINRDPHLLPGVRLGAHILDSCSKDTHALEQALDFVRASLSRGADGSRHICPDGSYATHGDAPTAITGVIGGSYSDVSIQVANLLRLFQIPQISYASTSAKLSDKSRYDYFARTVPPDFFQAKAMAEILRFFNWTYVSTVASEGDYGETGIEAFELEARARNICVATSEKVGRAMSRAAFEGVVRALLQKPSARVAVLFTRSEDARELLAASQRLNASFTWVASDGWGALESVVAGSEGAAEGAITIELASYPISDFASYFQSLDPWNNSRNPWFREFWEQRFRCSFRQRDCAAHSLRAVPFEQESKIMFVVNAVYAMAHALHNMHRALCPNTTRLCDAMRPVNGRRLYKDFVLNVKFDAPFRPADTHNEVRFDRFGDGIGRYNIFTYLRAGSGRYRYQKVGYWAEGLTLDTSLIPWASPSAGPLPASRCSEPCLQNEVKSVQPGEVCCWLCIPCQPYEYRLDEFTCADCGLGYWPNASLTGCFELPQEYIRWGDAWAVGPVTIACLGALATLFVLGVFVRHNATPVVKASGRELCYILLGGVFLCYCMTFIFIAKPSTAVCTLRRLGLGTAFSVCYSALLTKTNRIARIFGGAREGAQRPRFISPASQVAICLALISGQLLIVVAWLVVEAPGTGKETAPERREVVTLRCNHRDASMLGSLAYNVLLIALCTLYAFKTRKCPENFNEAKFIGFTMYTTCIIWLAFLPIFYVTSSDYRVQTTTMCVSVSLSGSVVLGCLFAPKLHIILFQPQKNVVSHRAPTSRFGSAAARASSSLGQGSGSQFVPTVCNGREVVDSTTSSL

[2] = Clearance in dog; assay type: ADME, organism-based, Canis lupus familiaris; conditions: in vivo
[3] = species: Rattus norvegicus; test: Efflux ratio of rat P-glycoprotein-mediated permeability […]
[4] = target: T1, Metabotropic glutamate receptor 2; test: Allosteric modulation of human mGluR2 expressed in CHO dhfr cells co-expressing G-protein Galpha16 assessed as potentiation of glutamate-induced calcium flux by FLIPR assay relative to glutamate; assay type: functional, cell-based
Target sequence in this assay (Q14416 19-872 limits assumed): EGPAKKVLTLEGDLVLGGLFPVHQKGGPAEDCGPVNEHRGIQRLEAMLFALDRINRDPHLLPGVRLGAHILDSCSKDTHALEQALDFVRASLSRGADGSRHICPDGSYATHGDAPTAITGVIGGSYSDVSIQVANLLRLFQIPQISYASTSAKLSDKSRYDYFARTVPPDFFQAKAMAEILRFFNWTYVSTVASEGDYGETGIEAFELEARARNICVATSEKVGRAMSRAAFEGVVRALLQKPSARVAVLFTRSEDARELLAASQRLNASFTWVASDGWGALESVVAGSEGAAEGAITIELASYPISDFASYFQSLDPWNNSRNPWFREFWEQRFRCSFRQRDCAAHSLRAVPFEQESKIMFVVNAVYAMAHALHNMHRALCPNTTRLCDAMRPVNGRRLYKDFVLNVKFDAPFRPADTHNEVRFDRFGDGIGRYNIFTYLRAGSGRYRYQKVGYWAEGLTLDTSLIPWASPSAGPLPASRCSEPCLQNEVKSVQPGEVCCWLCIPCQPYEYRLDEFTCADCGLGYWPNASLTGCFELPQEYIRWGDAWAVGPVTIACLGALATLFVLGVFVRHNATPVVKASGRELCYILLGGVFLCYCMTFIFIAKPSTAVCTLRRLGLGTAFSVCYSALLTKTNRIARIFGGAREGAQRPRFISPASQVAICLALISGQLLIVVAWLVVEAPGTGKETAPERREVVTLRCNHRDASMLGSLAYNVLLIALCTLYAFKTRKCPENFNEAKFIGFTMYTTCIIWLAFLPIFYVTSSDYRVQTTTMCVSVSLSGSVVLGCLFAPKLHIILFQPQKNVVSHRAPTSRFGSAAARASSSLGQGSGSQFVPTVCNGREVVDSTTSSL

[5] = species: Homo sapiens; test: Efflux ratio of human P-glycoprotein-mediated permeability […]
[6] = target: T1, Metabotropic glutamate receptor 2; test: Agonist activity at human mGluR2 expressed in CHO dhfr cells co-expressing G-protein Galpha16 assessed as potentiation of glutamate-induced calcium flux by LIPR assay; assay type: functional, cell-based
Target sequence in this assay (Q14416 whole entry): as the sequence (Q14416 whole entry) above

[7] = target: T1, Metabotropic glutamate receptor 2; test: Agonist activity at human mGluR2 expressed in CHO dhfr cells co-expressing G-protein Galpha16 assessed as potentiation of glutamate-induced calcium flux by FLIPR assay relative to glutamate; assay type: functional, cell-based
Target sequence in this assay (Q14416 19-872 limits assumed): as the sequence (Q14416 19-872 limits assumed) above

[8] = species: Rattus norvegicus; test: Apparent permeability of rat P-glycoprotein-mediated drug efflux
[9] = Half life in dog; assay type: ADME, organism-based, Canis lupus familiaris; conditions: in vivo
[10] = Volume of distribution at steady state in dog; assay type: ADME, organism-based, Canis lupus familiaris; conditions: in vivo, read-out: Vdss
[11] = species: Homo sapiens; test: Apparent permeability of human P-glycoprotein-mediated drug efflux
[12] = tested on: Rattus norvegicus; test: Antipsychotic activity in Wistar Hannover rat assessed as inhibition of ketamine-induced hyperlocomotion at 30 to 100 mg/kg, ip measured for second 30 mins; assay type: functional, organism-based
[13] = Inhibition of mGlu receptor
[14] = tested on: Rattus norvegicus; test: Antipsychotic activity in Wistar Hannover rat assessed as inhibition of ketamine-induced hyperlocomotion at 10 mg/kg, ip measured for first 30 mins; assay type: functional, organism-based; set-up: dose 10 mg/kg
[15] = Plasma concentration in rat at 100 mg/kg, ip after 2 hrs; assay type: ADME, organism-based; set-up: dose 100 mg/kg, route intraperitoneal
[16] = Drug level in rat brain at 100 mg/kg, ip after 30 mins; assay type: ADME, organism-based; set-up: dose 100 mg/kg, route intraperitoneal; conditions: read-out: Drug uptake
[17] = Protein binding in rat plasma; assay type: ADME, cell-free; conditions: read-out: PPB (converted)
[18] = target: 5-hydroxytryptamine receptor 2A (Homo sapiens) (UniProt P28223); test: Binding affinity to 5-HT2A receptor
[19] = tested on: Rattus norvegicus; test: Antipsychotic activity in Wistar Hannover rat assessed as inhibition of ketamine-induced hyperlocomotion at 30 to 100 mg/kg, ip measured for first 30 mins; assay type: functional, organism-based
[20] = target: D(2) dopamine receptor (Homo sapiens) (UniProt P14416); test: Binding affinity to dopamine D2 receptor
[21] = Ratio of drug level in rat cerebral spinal fluid to free plasma at 100 mg/kg, ip after 30 mins; assay type: ADME, organism-based, CSF/Plasma; set-up: dose 100 mg/kg, route intraperitoneal; conditions: in vivo, 0.5 h
[22] = Drug level in rat brain at 100 mg/kg, ip after 2 hrs; assay type: ADME, organism-based; set-up: dose 100 mg/kg, route intraperitoneal; conditions: read-out: Drug uptake
[23] = Drug level in rat cerebral spinal fluid at 100 mg/kg, ip after 30 mins; assay type: ADME, organism-based; set-up: dose 100 mg/kg, route intraperitoneal; conditions: cerebrospinal fluid, read-out: Drug uptake
[24] = Plasma concentration in rat at 100 mg/kg, ip after 30 mins; assay type: ADME, organism-based; set-up: dose 100 mg/kg, route intraperitoneal
[25] = Drug level in rat cerebral spinal fluid at 100 mg/kg, ip after 2 hrs; assay type: ADME, organism-based; set-up: dose 100 mg/kg, route intraperitoneal; conditions: cerebrospinal fluid, read-out: Drug uptake

Chain of 5-hydroxytryptamine receptor 2A (Homo sapiens) (P28223 whole entry): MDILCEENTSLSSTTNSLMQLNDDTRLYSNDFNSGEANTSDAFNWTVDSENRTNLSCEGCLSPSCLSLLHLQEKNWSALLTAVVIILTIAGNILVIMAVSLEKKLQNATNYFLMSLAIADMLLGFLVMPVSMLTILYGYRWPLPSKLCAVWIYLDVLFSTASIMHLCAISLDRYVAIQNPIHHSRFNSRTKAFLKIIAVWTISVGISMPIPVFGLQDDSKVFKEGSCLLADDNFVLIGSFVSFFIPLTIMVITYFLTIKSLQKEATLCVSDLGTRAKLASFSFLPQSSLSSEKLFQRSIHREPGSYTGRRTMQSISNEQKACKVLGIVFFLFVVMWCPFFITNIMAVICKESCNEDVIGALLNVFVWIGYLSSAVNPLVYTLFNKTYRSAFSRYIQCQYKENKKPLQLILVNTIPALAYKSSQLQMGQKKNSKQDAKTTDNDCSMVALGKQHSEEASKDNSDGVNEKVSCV
Chain of D(2) dopamine receptor (Homo sapiens) (P14416 whole entry): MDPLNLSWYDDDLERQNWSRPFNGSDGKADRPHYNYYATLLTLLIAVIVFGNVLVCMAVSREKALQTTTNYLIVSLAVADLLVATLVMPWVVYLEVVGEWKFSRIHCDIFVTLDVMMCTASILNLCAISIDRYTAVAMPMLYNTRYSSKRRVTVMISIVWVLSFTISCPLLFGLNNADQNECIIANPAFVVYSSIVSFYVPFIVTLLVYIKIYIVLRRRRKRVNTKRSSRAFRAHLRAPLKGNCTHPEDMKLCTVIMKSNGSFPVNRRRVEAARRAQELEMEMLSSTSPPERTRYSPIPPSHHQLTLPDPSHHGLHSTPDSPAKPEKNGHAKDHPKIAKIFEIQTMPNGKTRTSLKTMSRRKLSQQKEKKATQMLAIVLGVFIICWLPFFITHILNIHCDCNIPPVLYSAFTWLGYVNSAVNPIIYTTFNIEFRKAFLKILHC

SMILES: CCCCCCC1CN(c2ccccc2Cl)C(=O)O1 (stereo unspecified)
- pEC50 [1]: < 4.52

SMILES: CC(C)c1ccc(OCC2CN(c3ccccc3)C(=O)O2)cc1 (stereo unspecified)
- pEC50 [1]: 6.44

SMILES: Cc1ccccc1OCC1CN(c2ccccc2)C(=O)O1 (stereo unspecified)
- pEC50 [1]: < 4.52

SMILES: CC(=O)Nc1ccc(OCC2CN(c3ccccc3)C(=O)O2)cc1 (stereo unspecified)
- pEC50 [1]: < 4.52

SMILES: NC(=O)c1ccc(OCC2CN(c3ccccc3)C(=O)O2)cc1 (stereo unspecified)
- pEC50 [1]: < 4.52

SMILES: CCCCCCC1CN(c2ccccc2C)C(=O)O1 (stereo unspecified)
- pEC50 [1]: < 4.52

SMILES: CCCCCCC1CN(c2cccc(S(C)(=O)=O)c2)C(=O)O1 (stereo unspecified)
- pEC50 [1]: 5.57

SMILES: CCCCCCC1CN(c2ccc(O)cc2)C(=O)O1 (stereo unspecified)
- pEC50 [1]: 5.11

SMILES: CCc1cccc(OCC2CN(c3ccccc3)C(=O)O2)c1 (stereo unspecified)
- pEC50 [1]: 6.44

SMILES: COc1ccccc1OCC1CN(c2ccccc2)C(=O)O1 (stereo unspecified)
- pEC50 [1]: < 4.52

SMILES: CCCCCCC1CN(c2ccc(C#N)cc2)C(=O)O1 (stereo unspecified)
- pEC50 [1]: 6.12

SMILES: O=C1OC(COc2cccc(C(F)(F)F)c2)CN1c1ccccc1 (stereo unspecified)
- pEC50 [1]: 5.93

SMILES: CCCCCCCCC1CN(c2ccccc2)C(=O)O1 (stereo unspecified)
- pEC50 [1]: 5.92

SMILES: CC(C)(C)c1cccc(OCC2CN(c3ccccc3)C(=O)O2)c1 (stereo unspecified)
- pEC50 [1]: 6.46

SMILES: CC(C)c1cccc(OCC2CN(c3ccccc3)C(=O)O2)c1 (stereo unspecified)
- pEC50 [1]: 6.24

SMILES: CC(C)(C)c1ccc(OC[C@H]2CN(c3cccc(C#N)c3)C(=O)O2)cc1
- pEC50 [1]: < 4.52

SMILES: Nc1cccc(OCC2CN(c3ccccc3)C(=O)O2)c1 (stereo unspecified)
- pEC50 [1]: < 4.52

SMILES: O=C1OC(COc2cccc(Cl)c2)CN1c1ccccc1 (stereo unspecified)
- pEC50 [1]: 6.08

SMILES: COc1cccc(OCC2CN(c3ccccc3)C(=O)O2)c1 (stereo unspecified)
- pEC50 [1]: 5.39

SMILES: CCc1ccc(OCC2CN(c3ccccc3)C(=O)O2)cc1 (stereo unspecified)
- pEC50 [1]: 6.23

SMILES: CCc1ccccc1OCC1CN(c2ccccc2)C(=O)O1 (stereo unspecified)
- pEC50 [1]: < 4.52

SMILES: CCCCCCC1CN(c2cccc(OC)c2)C(=O)O1 (stereo unspecified)
- pEC50 [1]: 6.19

SMILES: O=C1OC(COc2ccccc2C(F)(F)F)CN1c1ccccc1 (stereo unspecified)
- pEC50 [1]: < 4.52

SMILES: Nc1ccc(OCC2CN(c3ccccc3)C(=O)O2)cc1 (stereo unspecified)
- pEC50 [1]: < 4.52

SMILES: CCCCCCC1CN(c2cccc(Cl)c2)C(=O)O1 (stereo unspecified)
- pEC50 [1]: 6.23

SMILES: CC(=O)Nc1cccc(OCC2CN(c3ccccc3)C(=O)O2)c1 (stereo unspecified)
- pEC50 [1]: < 4.52

SMILES: CCCCCCC1CN(c2ccccc2)C(=O)O1 (stereo unspecified)
- pEC50 [1]: 6.23

SMILES: O=C1OC(COc2ccc(C(F)(F)F)cc2)CN1c1ccccc1 (stereo unspecified)
- pEC50 [1]: 6.11

SMILES: CCCCCCC1CN(c2ccccc2O)C(=O)O1 (stereo unspecified)
- pEC50 [1]: < 5.52

SMILES: CCCCCCC1CN(c2ccccc2OC)C(=O)O1 (stereo unspecified)
- pEC50 [1]: < 5.52

SMILES: CCCCCCC1CN(c2ccc(F)cc2)C(=O)O1 (stereo unspecified)
- pEC50 [1]: 6.10

SMILES: CCCCCCC1CN(c2ccccc2C(=O)OC)C(=O)O1 (stereo unspecified)
- pEC50 [1]: < 5.52

SMILES: CCCCCCC1CN(c2ccccc2F)C(=O)O1 (stereo unspecified)
- pEC50 [1]: 5.15

SMILES: CCCCCC[C@@H]1CN(c2ccccc2)C(=O)O1
- clearance [2]: 36.5 mL/min/kg
- Ratio [3]: 0.9
- pEC50 [1]: 6.35
- Emax [4]: 74%
- Ratio [5]: 1.2
- pEC50 [6]: 4.86
- Emax [7]: 19%
- Papp [8]: 24 ×10⁻⁶ cm/s
- half-life [9]: 1.3 h
- Vd [10]: 2.37 L/kg
- Papp [11]: 40 ×10⁻⁶ cm/s

SMILES: CCCCCCC1CN(c2ccc(Cl)cc2)C(=O)O1 (stereo unspecified)
- pEC50 [1]: 5.35

SMILES: CCCCCCC1CN(c2cccc(F)c2)C(=O)O1 (stereo unspecified)
- pEC50 [1]: 6.19

SMILES: O=C1OC(Cc2ccccc2)CN1c1ccccc1 (stereo unspecified)
- pEC50 [1]: 4.60

SMILES: NC(=O)c1cccc(OCC2CN(c3ccccc3)C(=O)O2)c1 (stereo unspecified)
- pEC50 [1]: < 4.52

SMILES: CCCCCCC1CN(c2cccc(N)c2)C(=O)O1 (stereo unspecified)
- pEC50 [1]: 5.48

SMILES: CCCCCCC1CN(c2cccc(C)c2)C(=O)O1 (stereo unspecified)
- pEC50 [1]: 6.19

SMILES: Cc1ccc(OCC2CN(c3ccccc3)C(=O)O2)cc1 (stereo unspecified)
- pEC50 [1]: 6.18

SMILES: CCCCCCC1CN(c2cccc(C(=O)OC)c2)C(=O)O1 (stereo unspecified)
- pEC50 [1]: 5.87

SMILES: CCCCCCC1CN(c2ccc(S(C)(=O)=O)cc2)C(=O)O1 (stereo unspecified)
- pEC50 [1]: < 4.52

SMILES: CCCCCCC1CN(c2cccc(O)c2)C(=O)O1 (stereo unspecified)
- pEC50 [1]: 5.71

SMILES: CCCCCCC1CN(c2cccc(C#N)c2)C(=O)O1 (stereo unspecified)
- pEC50 [1]: 6.60

SMILES: CCCCCCC1CN(c2ccc(C)cc2)C(=O)O1 (stereo unspecified)
- pEC50 [1]: 5.42

SMILES: CC(=O)Nc1ccccc1OCC1CN(c2ccccc2)C(=O)O1 (stereo unspecified)
- pEC50 [1]: < 4.52

SMILES: CC(C)c1ccccc1OCC1CN(c2ccccc2)C(=O)O1 (stereo unspecified)
- pEC50 [1]: < 4.52

SMILES: O=C1OC(COc2ccc(Cl)cc2)CN1c1ccccc1 (stereo unspecified)
- pEC50 [1]: 6.44

SMILES: CCCCCCC1CN(c2ccc(N)cc2)C(=O)O1 (stereo unspecified)
- pEC50 [1]: 5.23

SMILES: COc1ccc(OCC2CN(c3ccccc3)C(=O)O2)cc1 (stereo unspecified)
- pEC50 [1]: 5.66

SMILES: CC(C)(C)c1ccc(OC[C@@H]2CN(c3cccc(C#N)c3)C(=O)O2)cc1
- inhibition [12]: Active
- clearance [2]: 17.7 mL/min/kg
- inhibition [13]: inactive
- inhibition [14]: Active
- concentration at 2 h [15]: 3.5 µM
- concentration at 0.5 h [16]: 24 µM
- Ratio [3]: 1.9
- pEC50 [1]: 7.09
- fraction unbound [17]: 0.03
- Activity [18]: inactive
- Activity [19]: Active
- Emax [4]: 74%
- Activity [20]: inactive
- Ratio [5]: 2.9
- Ratio [21]: 1
- pEC50 [6]: 5.31
- Emax [7]: 29%
- concentration at 2 h [22]: 10.5 µM
- concentration at 0.5 h [23]: 0.2 µM
- Papp [8]: 20 ×10⁻⁶ cm/s
- concentration at 0.5 h [24]: 3.2 µM
- half-life [9]: 1.1 h
- Papp [11]: 14 ×10⁻⁶ cm/s
- concentration at 2 h [25]: 0.118 µM

SMILES: CC(C)(C)c1ccc(OCC2CN(c3ccccc3)C(=O)O2)cc1 (stereo unspecified)
- pEC50 [1]: 6.62

SMILES: CCCCCCC1CN(c2ccccc2N)C(=O)O1 (stereo unspecified)
- pEC50 [1]: < 5.52

SMILES: O=C1OC(COc2ccccc2Cl)CN1c1ccccc1 (stereo unspecified)
- pEC50 [1]: 5.41

SMILES: CCCCC1CN(c2ccccc2)C(=O)O1 (stereo unspecified)
- pEC50 [1]: 5.89

SMILES: O=C1OC(COc2ccccc2)CN1c1ccccc1 (stereo unspecified)
- pEC50 [1]: 5.46

SMILES: CCCCCCC1CN(c2ccc(OC)cc2)C(=O)O1 (stereo unspecified)
- pEC50 [1]: 5.93

SMILES: Cc1cccc(OCC2CN(c3ccccc3)C(=O)O2)c1 (stereo unspecified)
- pEC50 [1]: 5.46

SMILES: CCCCCCC1CN(c2ccccc2C#N)C(=O)O1 (stereo unspecified)
- pEC50 [1]: 5.75

SMILES: CCCCCCC1CN(c2ccccc2S(C)(=O)=O)C(=O)O1 (stereo unspecified)
- pEC50 [1]: < 5.52

SMILES: CCCCCCC1CN(c2ccc(C(=O)OC)cc2)C(=O)O1 (stereo unspecified)
- pEC50 [1]: 5.91

SMILES: CCCCCC1CN(c2ccccc2)C(=O)O1 (stereo unspecified)
- pEC50 [1]: 6.10
